In patent EP2695600A1, “Dermal cosmetic compositions having osmoprotecting activity” (Unifarco S.p.A., priority 2012, dated 2014):

Columns and labels:
[1] = tested on: Reconstructed Human Epidermis (RHE); test: LDH quantification (membrane integrity / viability) in cold-stress epidermal dryness model; assay type: cell-based
From the text: (§1) An experimental model of epidermal dryness, induced by modified room humidity and temperature conditions, has been used to assess the efficacy of 3 cosmetic products characterized by the following compositions SOLUTION 1 Water + trehalose 1% SOLUTION 2 Water + ectoine 0,5% SOLUTION 3 Water + ectoine 0,5% + trehalose 1%.
(§2) SkinEthic® Reconstructed Human Epidermis (RHE) of 0,5 cm^2 is a fully differentiated epidermis formed after 17 day of air-lift culture of NHK from skin biopsies in a chemically defined medium. The model reproduces epidermal morphology and it has been fully characterized. The good barrier function, batch reproducibility and low variability in terms of permeability for probe molecules have been described in the Literature compared to human ex-vivo models.
Immediately after arrival in the laboratory, the RHE were transferred to a 6-well plate previously filled with maintenance medium (1 mL/well) at room temperature and incubated at 37°C, 5% CO2, saturated humidity. The test has been started the day after the arrival.
The cell membrane forms a functional barrier around the cell, and traffic into and out of the cell is highly regulated by transporters, receptors and secretion pathways. When cells are damaged, they become 'leaky' and this forms the basis for the second type of assay. Membrane integrity is determined by measuring lactate dehydrogenase (LDH) in the extracellular medium. This enzyme is normally present in the cytosol, and cannot be measured extracellularly unless cell damage has occurred. […] The culture supernatant is collected and incubated with the reaction mixture including the kit (20 min, room T°, in the dark). An increase in the amount of dead or plasma membrane-damaged cells results in an increase of the LDH enzyme activity in the culture media. This increase in the amount of enzyme activity in the supernatant directly correlates to the amount of formazan formed during a defined time period therefore, the amount of color formed in the assay is proportional to the number of lysed cells.
The higher optical density has been quantified in the media of stressed RHE and used as 100 % higher citotoxicity value.

AQP3 = test: Real time PCR, AQP3 gene expression in RHE; assay type: cell-based, Human; conditions: for AQP3 (RQ): cold stressed RHE
From the text: as §1, §2
(§3) For the three steps, ready to use reagents were used. The RNAqueous method is a rapid, phenol free, filter based RNA isolation system used to extract the total RNA from cellular samples. The High Capacity cDNA Reverse Transcription kit was used to synthetize cDNA from RNA. The instrument Applied Biosystems 7500 Fast Real Time PCR with fluorescent-based PCR chemistry, the TaqMan assay, was used to study gene expression of significant biomarkers. Gene expression is the process by which the inheritable information in a gene, such as the DNA sequence, is made into a functional gene product, such as protein or RNA. Relative quantification determines the change in the expression of a nucleic acid sequence in a test sample relative to the same sequence in a calibrator sample. Beta-actin was used as an endogenous control gene to normalize input amounts.
(§4) Each replicate was assessed in triplicate. At the 2X TaqMan Fast Universal PCR Master Mix was added Taqman gene expression assay and cDNA (25 ng) for a total volume of 25 µL. The Thermal condition steps in the ABI PRISM 7500 Fast are: 95°C 20 sec; 40 cycles (95°C 3 sec +60°C 30 sec).
(§5) Fluorescence data of the RT-PCR generated by the thermocycler ABI PRISM 7500 Fast, are collected by the internal software SDS 2.0.5 and the Raw Data (RQ study results) are printed and exported in Excel.
(§6) Because each cycle in the PCR reaction corresponds to a 2-fold increase in PCR product, a difference of one in threshold cycle number represents a 2-fold difference in the expression of a particular gene compared to the calibrator sample and can be considered as significant. 95% of confidence level is used by the software to calculate the errors.
(§7) The cold stress performed by 30' induction at -20°C corresponds to a block of water flux: the treatment has been done at this moment and followed by 16h and 48h recovery allowing to monitor the dynamic of the genomic response and to study product mechanism of action: the fig.3 described RHE's physiological response of saline solution treatment and glycerol compared to the RHE physiological response of the same treated with SOLUTIONS 1,2,3.

HSP1A1 = test: Real time PCR, HSP1A1 (HSP 72) gene expression in RHE; assay type: cell-based, Human; conditions: for HSP 72 (RQ): cold stressed RHE, calibrator stressed saline =1 (Fig. 7)
From the text: as §1, §2, §3, §4, §5, §6, §7

With OCC(O)CO [Glycerin 5%, Glycerin] the “citotoxicity (LDH release), verbal assessment” value ([1]; 16h and 48h, standard conditions (for Glycerin 5% also stressed conditions)) was “not citotoxic”, the “% VIABILITY” value ([1]; STANDARD conditions (without stress), 30 MIN + 16H) was 96,08% and the “% VIABILITY” value ([1]; STANDARD conditions (without stress), 30 MIN + 48H) was 63,14%. For the same molecule, the “% VIABILITY” value ([1]; cold stressed RHE (30 MIN at -20°C), product applied, 16H recovery) was 80,70%, the “% VIABILITY” value ([1]; cold stressed RHE (30 MIN at -20°C), product applied, 48H recovery) was 61,11% and the “AQP3 Gene expression (RQ)” value (AQP3; applied after 30' stress induction, 48h recovery, calibrator CONTROL RHE CN=1 (Fig. 3)) was “reduced”. For the same molecule, the “AQP3 (RQ)” value (AQP3; 16H recovery, calibrator RHE STRESSED SALINE =1) was 0,437, the “AQP3 (RQ)” value (AQP3; 48H recovery, calibrator RHE STRESSED SALINE =1 (Fig. 4), 2880 min) was 0,409 and the “AQP3 (RQ)” value (AQP3; 48H recovery, calibrator RHE STRESSED SALINE =1 (Fig. 4), listed as Glycerol 5%) was “reduced”. For the same molecule, the “AQP3 Gene expression (RQ)” value (AQP3; non stressed but treated RHE, standard conditions, 16h, calibrator CN 16h=1 (Fig. 1)) was “significantly reduced”, the “AQP3 Gene expression (RQ)” value (AQP3; non stressed but treated RHE, standard conditions, 48h, calibrator CN 48h=1 (Fig. 1)) was 1,694 and the “HSP 72 (RQ)” value (HSP1A1; 16H recovery) was “down-regulation”. For the same molecule, the “HSP 72 (RQ)” value (HSP1A1; 16H recovery, 960 min) was 0,139, the “HSP 72 (RQ)” value (HSP1A1; 48H recovery) was 0,437 and the “HSP1A1 Gene expression” value (HSP1A1; non stressed but treated RHE, standard condition, 16h, calibrator CN 16h=1 (Fig. 5)) was “significantly reduced”. For the same molecule, the “HSP1A1 (HSP 72) Gene expression” value (HSP1A1; not stressed RHE, 48h treatment, calibrator CN 48h=1 (Fig. 5)) was “over expression” and the “HSP 72 expression” value (HSP1A1; stressed RHE, 16h recovery, calibrator positive stressed control (Fig. 6)) was “reduced”.
